{"source": "paper PMC7244308", "about": "(Science Advances, 2020)", "key": {"SLO [1]": {"target": "T1, SLO (Streptococcus pyogenes serotype M1, UniProt P0C0I3)", "T1 sequence (P0C0I3 34-571 limits assumed)": "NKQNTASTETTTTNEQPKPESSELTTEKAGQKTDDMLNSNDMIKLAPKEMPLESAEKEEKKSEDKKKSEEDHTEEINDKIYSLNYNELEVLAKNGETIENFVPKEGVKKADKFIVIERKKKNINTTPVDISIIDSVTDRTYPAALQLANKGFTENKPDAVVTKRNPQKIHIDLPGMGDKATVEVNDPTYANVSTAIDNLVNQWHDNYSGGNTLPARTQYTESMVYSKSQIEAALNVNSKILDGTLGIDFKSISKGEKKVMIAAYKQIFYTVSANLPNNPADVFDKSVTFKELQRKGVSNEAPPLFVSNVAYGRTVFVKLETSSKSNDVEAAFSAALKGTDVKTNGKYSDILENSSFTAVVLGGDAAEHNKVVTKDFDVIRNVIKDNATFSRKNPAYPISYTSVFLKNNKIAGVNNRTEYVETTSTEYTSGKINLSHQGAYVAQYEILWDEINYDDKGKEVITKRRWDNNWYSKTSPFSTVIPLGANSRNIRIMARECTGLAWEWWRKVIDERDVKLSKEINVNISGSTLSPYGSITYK", "assay": "biochemical", "format": "binding"}, "Ply": {"target": "Ply (Streptococcus pneumoniae, UniProt Q7ZAK5)", "sequence (Q7ZAK5 whole entry, looked up)": "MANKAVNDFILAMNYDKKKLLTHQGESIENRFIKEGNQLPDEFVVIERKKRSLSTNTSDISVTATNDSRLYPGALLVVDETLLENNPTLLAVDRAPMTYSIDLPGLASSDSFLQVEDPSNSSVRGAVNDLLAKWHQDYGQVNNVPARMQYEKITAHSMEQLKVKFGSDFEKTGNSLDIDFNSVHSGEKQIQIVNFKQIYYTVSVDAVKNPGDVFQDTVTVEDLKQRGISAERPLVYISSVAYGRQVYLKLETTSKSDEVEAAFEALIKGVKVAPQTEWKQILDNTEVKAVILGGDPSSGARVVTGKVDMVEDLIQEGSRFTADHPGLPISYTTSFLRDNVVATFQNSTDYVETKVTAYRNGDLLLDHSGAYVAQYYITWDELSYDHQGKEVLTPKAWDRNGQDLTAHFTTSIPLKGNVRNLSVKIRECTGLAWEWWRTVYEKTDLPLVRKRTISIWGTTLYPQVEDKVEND", "assay": "biochemical", "format": "binding"}, "ILY": {"target": "ILY (Streptococcus intermedius, UniProt Q9LCB8)", "assay": "biochemical", "format": "binding"}, "PFO": {"target": "PFO (Clostridium perfringens, UniProt P0C2E9)", "sequence (P0C2E9 29-500 limits assumed)": "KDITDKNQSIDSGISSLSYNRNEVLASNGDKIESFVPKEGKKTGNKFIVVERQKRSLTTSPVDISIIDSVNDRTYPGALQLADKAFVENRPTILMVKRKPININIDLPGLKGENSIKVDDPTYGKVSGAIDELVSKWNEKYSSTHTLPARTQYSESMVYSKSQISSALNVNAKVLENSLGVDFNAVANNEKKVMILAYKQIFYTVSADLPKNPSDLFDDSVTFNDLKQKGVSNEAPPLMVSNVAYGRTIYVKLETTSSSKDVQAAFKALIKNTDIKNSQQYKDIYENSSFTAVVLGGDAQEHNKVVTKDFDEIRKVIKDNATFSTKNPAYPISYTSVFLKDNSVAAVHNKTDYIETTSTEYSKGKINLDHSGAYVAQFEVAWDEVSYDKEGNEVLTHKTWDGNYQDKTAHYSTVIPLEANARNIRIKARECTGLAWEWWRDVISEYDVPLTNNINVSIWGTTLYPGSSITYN", "assay": "biochemical", "format": "binding"}, "[2]": {"target": "recombinant human I-domain (Homo sapiens, UniProt P11215)", "sequence (P11215 150-328)": "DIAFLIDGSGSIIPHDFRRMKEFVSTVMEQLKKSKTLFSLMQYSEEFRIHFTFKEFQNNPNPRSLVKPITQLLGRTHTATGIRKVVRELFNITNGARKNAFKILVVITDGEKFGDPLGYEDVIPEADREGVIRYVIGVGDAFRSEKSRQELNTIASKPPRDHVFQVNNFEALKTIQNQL", "format": "binding"}, "SLY": {"target": "SLY (Streptococcus suis, UniProt Q55996)", "format": "binding"}, "SLY D4": {"target": "SLY D4 (Streptococcus suis, UniProt Q55996)", "format": "binding"}, "LLO": {"target": "LLO (Listeria monocytogenes serovar 1/2a, UniProt P13128)", "sequence (P13128 25-529 limits assumed)": "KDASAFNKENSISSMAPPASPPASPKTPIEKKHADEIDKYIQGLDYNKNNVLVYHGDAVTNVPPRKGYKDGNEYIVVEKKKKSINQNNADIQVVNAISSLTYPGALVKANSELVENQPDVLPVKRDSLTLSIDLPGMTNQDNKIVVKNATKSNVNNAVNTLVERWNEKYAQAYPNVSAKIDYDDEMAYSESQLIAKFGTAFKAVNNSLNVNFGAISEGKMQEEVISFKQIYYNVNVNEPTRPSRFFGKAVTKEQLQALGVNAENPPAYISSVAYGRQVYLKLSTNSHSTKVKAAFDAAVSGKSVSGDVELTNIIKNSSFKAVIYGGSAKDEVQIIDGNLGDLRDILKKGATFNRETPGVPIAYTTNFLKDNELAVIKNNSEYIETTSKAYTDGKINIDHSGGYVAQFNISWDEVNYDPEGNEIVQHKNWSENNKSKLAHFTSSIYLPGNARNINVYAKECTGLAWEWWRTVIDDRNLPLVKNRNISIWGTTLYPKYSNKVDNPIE", "format": "binding"}, "SLO [3]": {"target": "T1, SLO", "format": "cell-based"}}, "note": "Like-named read-outs stand apart in the source and are kept apart here.", "data": [{"compound": "CC(=O)[C@H]1CC[C@H]2[C@@H]3CC=C4C[C@@H](O)CC[C@]4(C)[C@H]3CC[C@]12C", "note": "[pregnenolone]", "values": [{"measurement": "binding in SPR drug library screen", "setting": "SLO [1]", "result": "binds"}, {"measurement": "Kd", "setting": "Ply", "result": "~0.4", "unit": "nM"}, {"measurement": "binding in SPR drug library screen", "setting": "Ply", "result": "binds"}]}, {"compound": "CC(=O)N[C@H]1[C@H]([C@H](O)[C@H](O)CO)O[C@@](O[C@H]2[C@@H](O)[C@@H](CO)O[C@@H](O[C@@H]([C@H](O[C@@H]3O[C@@H](C)[C@@H](O)[C@@H](O)[C@@H]3O)[C@H](C=O)NC(C)=O)[C@H](O)CO)[C@@H]2O)(C(=O)O)C[C@@H]1O", "note": "[sLeX, sialyl-Lewis X]", "values": [{"measurement": "Kd", "setting": "ILY; KD", "result": 2800, "unit": "nM"}, {"measurement": "Kd", "setting": "SLO [1]; KD", "result": 3100, "unit": "nM"}, {"measurement": "Kd", "setting": "PFO; KD", "result": 3900, "unit": "nM"}, {"measurement": "Kd", "setting": "Ply; KD", "result": 1300, "unit": "nM"}]}, {"compound": "Ply: pneumolysin, CDC toxin from Streptococcus pneumoniae, recombinant His-tagged", "values": [{"measurement": "Kd", "setting": "[2]", "result": 22.3, "unit": "nM"}]}, {"compound": "C[C@@H]1O[C@@H](O[C@H]2C(O)O[C@H](CO)[C@H](O)[C@@H]2O)[C@@H](O)[C@H](O)[C@@H]1O", "note": "(stereo partly shown) [BGH di, blood group H antigen disaccharide]", "values": [{"measurement": "Kd", "setting": "SLO [1]", "result": 603, "unit": "nM"}, {"measurement": "Kd", "setting": "SLY", "result": 19000, "unit": "nM"}, {"measurement": "Kd", "setting": "SLY D4", "result": 26000, "unit": "nM"}]}, {"compound": "pregnenolone sulfate (sodium salt) [PS]", "values": [{"measurement": "competition with cholesterol (competitive SPR)", "setting": "SLO [1]", "result": "compete directly"}, {"measurement": "competition with cholesterol (competitive SPR)", "setting": "LLO", "result": "compete directly"}, {"measurement": "effect on SLO hemolytic activity", "setting": "SLO [3]", "result": "inhibit"}, {"measurement": "competition with cholesterol (competitive SPR)", "setting": "Ply", "result": "compete directly"}]}, {"compound": "O=C[C@H](O)[C@@H](O)[C@H](O[C@@H]1O[C@H](CO)[C@@H](O)[C@H](O)[C@H]1O)[C@H](O)CO", "note": "[Cellobiose]", "values": [{"measurement": "Kd", "setting": "PFO; KD", "result": 34000, "unit": "nM"}]}, {"compound": "CC(=O)N[C@H]1[C@H](O[C@H]2[C@@H](O)[C@@H](CO)O[C@@H](O[C@H]3[C@H](O)[C@@H](O)C(O)O[C@@H]3CO)[C@@H]2O)O[C@H](CO)[C@@H](O[C@@H]2O[C@H](CO)[C@H](O)[C@H](O)[C@H]2O)[C@@H]1O", "note": "(mixture of isomers) [LNnT, lacto-N-neotetraose]", "values": [{"measurement": "Kd", "setting": "ILY", "result": 4900, "unit": "nM"}, {"measurement": "Kd", "setting": "SLO [1]", "result": 0.93, "unit": "nM"}, {"measurement": "Kd", "setting": "PFO", "result": 2800, "unit": "nM"}]}, {"compound": "CC(C)CCC[C@@H](C)[C@H]1CC[C@H]2[C@@H]3CC=C4C[C@@H](O)CC[C@]4(C)[C@H]3CC[C@]12C", "note": "[Cholesterol]", "values": [{"measurement": "Kd", "setting": "SLO [1]; KD", "result": 189, "unit": "nM"}, {"measurement": "Kd", "setting": "PFO; KD", "result": 296, "unit": "nM"}, {"measurement": "Kd", "setting": "Ply; KD", "result": 1000, "unit": "nM"}]}]}
